According to article PMC11089505, “Structural Elucidation and Antiviral Activity of Covalent Cathepsin L Inhibitors” (Journal of Medicinal Chemistry, 2024):
pEC50, pIC50, pKi: −log10 of the molar value. Values joined by “and” are separate entries in the source; they are usually repeats but may differ in a detail not shown here. Equal entries are not always repeated. Where two headings read alike, the source gives them in different places.

How the values were obtained:
[1] = in DMSO; compound supply and quality parameters, supplier named in Table S4; cited from earlier work
SARS-CoV-2 Mpro = SARS-CoV-2 Mpro (Severe acute respiratory syndrome coronavirus 2, UniProt P0DTD1); assay type: binding
CatL [2] = molecular target: T1, CatL (Homo sapiens, UniProt P07711, T223A); experiment: CatL inhibition assay (Ki), substrate Z-RR-AMC; assay type: biochemical
T1 construct: made in house; host or cells: Komagataella pastoris strain GS115
T1 sequence (P07711 114-333 T223A): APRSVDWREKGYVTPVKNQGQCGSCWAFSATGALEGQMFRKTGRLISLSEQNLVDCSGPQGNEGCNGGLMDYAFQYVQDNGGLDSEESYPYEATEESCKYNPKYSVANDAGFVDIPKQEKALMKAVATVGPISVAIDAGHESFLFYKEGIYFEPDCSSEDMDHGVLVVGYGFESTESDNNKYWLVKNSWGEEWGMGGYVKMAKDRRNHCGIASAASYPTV
Procedure, shortened: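 Buffer: 50 mM sodium acetate pH 4.0, 50 mM NaCl, 0.1% PEG 6000, 5 mM DTT; epoxide inhibitors separately in 50 mM sodium phosphate pH 6.0 with same additives.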

bovine serum albumin = molecular target: T2, bovine serum albumin (Bos taurus, UniProt P02769); assay type: binding
T2 construct: purchased Merck, Germany
T2 sequence (P02769 25-607): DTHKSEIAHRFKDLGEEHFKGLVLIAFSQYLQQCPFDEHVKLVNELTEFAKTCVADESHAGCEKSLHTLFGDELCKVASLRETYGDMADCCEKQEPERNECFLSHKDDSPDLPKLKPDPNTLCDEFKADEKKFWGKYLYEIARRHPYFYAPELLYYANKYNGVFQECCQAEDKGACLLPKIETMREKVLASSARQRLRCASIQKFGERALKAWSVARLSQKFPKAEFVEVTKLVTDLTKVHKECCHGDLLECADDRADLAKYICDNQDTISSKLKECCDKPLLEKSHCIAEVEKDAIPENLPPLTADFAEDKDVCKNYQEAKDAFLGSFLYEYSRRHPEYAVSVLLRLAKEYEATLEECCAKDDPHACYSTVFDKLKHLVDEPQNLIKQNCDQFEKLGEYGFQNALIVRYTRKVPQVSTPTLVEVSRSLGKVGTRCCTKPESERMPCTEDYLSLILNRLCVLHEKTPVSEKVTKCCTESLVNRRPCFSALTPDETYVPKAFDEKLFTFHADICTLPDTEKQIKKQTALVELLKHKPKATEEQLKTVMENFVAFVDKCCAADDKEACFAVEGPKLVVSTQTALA

[3] = test system: SARS-CoV-2-GFP in Vero E6 cells; experiment: microbe, parasite or virus in culture; assay type: cell-based
Vero cells = test system: Vero cells; design: method as in PMID 32541865; conditions: another assay using Vero cells; cited from earlier work
[4] = test system: SARS-CoV-2 wild-type SA-WA1/2020; design: method as in PMID 32541865; conditions: Vero cells, read-out: half-maximal effective concentration; cited from earlier work
CatL [5] = molecular target: T1, CatL; experiment: NanoDSF, thermal stability of CatL; assay type: binding
CatL [6] = conditions: Table S1, SI reference list; cited from earlier work
[7] = Cell viability assay (CellTiter-Blue); conditions: chlorocebus sabaeus

SMILES: CCCC(NC(=O)C(CC(C)C)NC(=O)OCc1ccccc1)C(=O)C(=O)NCc1ccccn1 (stereo not shown) [CI-XII, Benzyl N-[1-[[1.2-dioxo-1-(pyridin-2-ylmethylamino)hexan-3-yl]amino]-4-methyl-1-oxopentan-2-yl]carbamate]
- Solvent (max. solubility) [1]: 16 mg/mL
- 2:1, Tm average (Mpro) (SARS-CoV-2 Mpro; 2:1 compound to protein): 66.7 °C
- ΔTm (for Mpro), 2:1 compound to protein mixing ratio (SARS-CoV-2 Mpro; pH 7.5): 11,7 ± 1,7 °C and 11.7 °C
- Residual activity (Vi/V0) (CatL [2]; CI-XII 0.055 uM): 0.9785 and 0.9376
- Residual activity (Vi/V0) (CatL [2]; CI-XII 0.091 uM): 0.9548 and 0.9431
- Residual activity (Vi/V0) (CatL [2]; CI-XII 0.152 uM): 0.9354 and 0.8807
- Residual activity (Vi/V0) (CatL [2]; CI-XII 0.254 uM): 0.873 and 0.9321
- Residual activity (Vi/V0) (CatL [2]; CI-XII 0.423 uM): 0.8656 and 0.8369
- Residual activity (Vi/V0) (CatL [2]; CI-XII 0.705 uM): 0.7709 and 0.7656
- Residual activity (Vi/V0) (CatL [2]; CI-XII 1.176 uM): 0.6641 and 0.6442
- Residual activity (Vi/V0) (CatL [2]; CI-XII 1.960 uM): 0.5112 and 0.4696
- Residual activity (Vi/V0) (CatL [2]; CI-XII 3.266 uM): 0.3345 and 0.322
- Residual activity (Vi/V0) (CatL [2]; CI-XII 5.443 uM): 0.1956 and 0.1842
- Residual activity (Vi/V0) (CatL [2]; CI-XII 9.072 uM): 0.1094 and 0.09936
- Residual activity (Vi/V0) (CatL [2]; CI-XII 15.120 uM): 0.06322 and 0.05321
- Residual activity (Vi/V0) (CatL [2]; CI-XII 25.200 uM): 0.03696 and 0.03366
- Residual activity (Vi/V0) (CatL [2]; CI-XII 42.000 uM): 0.01939 and 0.02113
- Residual activity (Vi/V0) (CatL [2]; CI-XII 70.000 uM): 0.01108 and 0.01542
- fold lower Ki than 13b (CatL [2]; CatL Ki relative to 13b): ~500 fold
- pKi (CatL [2]; Ki, CatL, Z-RR-AMC, pH 4.0, 37 °C): 9.19
- remaining activity at 0.055 µM (CatL [2]; read-out: Residual activity (Vi/V0), CI-XII 0.055 uM): 101%
- remaining activity at 0.091 µM (CatL [2]; read-out: Residual activity (Vi/V0), CI-XII 0.091 uM): 100%
- remaining activity at 0.152 µM (CatL [2]; read-out: Residual activity (Vi/V0), CI-XII 0.152 uM): 102%
- remaining activity at 0.254 µM (CatL [2]; read-out: Residual activity (Vi/V0), CI-XII 0.254 uM): 94.7%
- remaining activity at 0.423 µM (CatL [2]; read-out: Residual activity (Vi/V0), CI-XII 0.423 uM): 84.5%
- remaining activity at 0.705 µM (CatL [2]; read-out: Residual activity (Vi/V0), CI-XII 0.705 uM): 75%
- remaining activity at 1.176 µM (CatL [2]; read-out: Residual activity (Vi/V0), CI-XII 1.176 uM): 65.7%
- remaining activity at 1.96 µM (CatL [2]; read-out: Residual activity (Vi/V0), CI-XII 1.960 uM): 52.2%
- remaining activity at 3.266 µM (CatL [2]; read-out: Residual activity (Vi/V0), CI-XII 3.266 uM): 34.9%
- remaining activity at 5.443 µM (CatL [2]; read-out: Residual activity (Vi/V0), CI-XII 5.443 uM): 17.4%
- remaining activity at 9.072 µM (CatL [2]; read-out: Residual activity (Vi/V0), CI-XII 9.072 uM): 9.65%
- remaining activity at 15.12 µM (CatL [2]; read-out: Residual activity (Vi/V0), CI-XII 15.120 uM): 5.77%
- remaining activity at 25.2 µM (CatL [2]; read-out: Residual activity (Vi/V0), CI-XII 25.200 uM): 3.2%
- remaining activity at 42 µM (CatL [2]; read-out: Residual activity (Vi/V0), CI-XII 42.000 uM): 1.92%
- remaining activity at 70 µM (CatL [2]; read-out: Residual activity (Vi/V0), CI-XII 70.000 uM): 1.07%
- Tm of bovine serum albumin in the presence of compound (bovine serum albumin): 333.4 ± 0.8 K
- pEC50 ([3]; Severe acute respiratory syndrome coronavirus 2, Vero C1008, 24 h, read-out: EC50 (24 h)): 8.19
- pEC50 ([3]; Severe acute respiratory syndrome coronavirus 2, Vero C1008, 24 h, read-out: EC50 (after 24 h)): 8.20
- pEC50 ([3]; Severe acute respiratory syndrome coronavirus 2, Vero C1008, 48 h, read-out: EC50 (after 48 h)): 6.84
- pEC50 ([3]; read-out: EC50 (24 h)): > 8.00
- CC50 (Vero cells): > 50000 nM
- pEC50 [4]: > 6.00
- 2:1, Tm average (CatL) (CatL [5]): 81.6 °C
- 20:1, Tm average (CatL) (CatL [5]): 81.3 °C
- ΔTm [K] for CatL, 2:1 ratio (CatL [5]): 18.5 ± 0.4 K
- ΔTm (for CatL), 2:1 compound to protein mixing ratio (CatL [5]; pH 5): 18,5 ± 0,4 °C and 18.5 °C
- ΔTm (for CatL), 20:1 compound to protein mixing ratio (CatL [5]; pH 5): 18,2 ± 0,2 °C and 18.2 °C
- pIC50 (CatL [6]): 8.80
- CC50 at 48 h [7]: > 10000 nM
